Measurements reported in the NIST ThermoML archive (doi:10.1016/j.jct.2007.09.009).
± gives the expanded uncertainty stated by the source.

How the values were obtained:
[1] = 298.15 K; 101.33 kPa; Liquid; Pycnometric method
[2] = refractive index (Na D-line) (dimensionless); conditions: 298.15 K; 101.33 kPa; Liquid; Standard Abbe refractometry
[3] = xn = mol fraction of the nth substance listed; conditions: 313.15 K, 101 kPa, Liquid, Direct dilatometry

CC(=O)N(C)C [N,N-dimethylethanamide]
Conditions	mass density [kg/m3]	refractive index
[1]	922.4 ± 0.9	–
[2]	–	1.43556 ± 0.0007

CC(=O)N(C)C [N,N-dimethylethanamide] + CCO
[3]
Conditions	excess molar volume [m3/mol]
x1 = 0.0259	-3.74e-08 ± 3e-09
x1 = 0.0456	-6.13e-08 ± 3.1e-09
x1 = 0.0769	-9.86e-08 ± 3.1e-09
x1 = 0.103	-1.237e-07 ± 3.1e-09
x1 = 0.1481	-1.61e-07 ± 3.2e-09
x1 = 0.1765	-1.787e-07 ± 3.2e-09
x1 = 0.2149	-1.991e-07 ± 3.2e-09
x1 = 0.2587	-2.157e-07 ± 3.2e-09
x1 = 0.2846	-2.228e-07 ± 3.2e-09
x1 = 0.3094	-2.282e-07 ± 3.2e-09
x1 = 0.3288	-2.315e-07 ± 3.2e-09
x1 = 0.3513	-2.338e-07 ± 3.2e-09
x1 = 0.3784	-2.352e-07 ± 3.2e-09
x1 = 0.3866	-2.374e-07 ± 3.2e-09
x1 = 0.4014	-2.353e-07 ± 3.2e-09
x1 = 0.4131	-2.373e-07 ± 3.2e-09
x1 = 0.4396	-2.356e-07 ± 3.2e-09
x1 = 0.4661	-2.327e-07 ± 3.2e-09
x1 = 0.4937	-2.292e-07 ± 3.2e-09
x1 = 0.5249	-2.227e-07 ± 3.2e-09
x1 = 0.5532	-2.161e-07 ± 3.2e-09
x1 = 0.5913	-2.059e-07 ± 3.2e-09
x1 = 0.6379	-1.906e-07 ± 3.2e-09
x1 = 0.6743	-1.761e-07 ± 3.2e-09
x1 = 0.7191	-1.593e-07 ± 3.2e-09
x1 = 0.7691	-1.359e-07 ± 3.1e-09
x1 = 0.8211	-1.109e-07 ± 3.1e-09
x1 = 0.8768	-7.86e-08 ± 3.1e-09
x1 = 0.9287	-4.6e-08 ± 3e-09
x1 = 0.962	-2.56e-08 ± 3e-09

CC(=O)N(C)C [N,N-dimethylethanamide] + CO
[3]
Conditions	excess molar volume [m3/mol]
x1 = 0.0166	-5.83e-08 ± 3.1e-09
x1 = 0.0295	-9.34e-08 ± 3.1e-09
x1 = 0.0344	-1.106e-07 ± 3.2e-09
x1 = 0.0508	-1.501e-07 ± 3.2e-09
x1 = 0.0623	-1.832e-07 ± 3.2e-09
x1 = 0.0717	-2.034e-07 ± 3.2e-09
x1 = 0.0953	-2.561e-07 ± 3.3e-09
x1 = 0.0979	-2.653e-07 ± 3.3e-09
x1 = 0.1263	-3.178e-07 ± 3.3e-09
x1 = 0.1366	-3.395e-07 ± 3.4e-09
x1 = 0.169	-3.878e-07 ± 3.4e-09
x1 = 0.1692	-3.91e-07 ± 3.4e-09
x1 = 0.1997	-4.315e-07 ± 3.4e-09
x1 = 0.2025	-4.324e-07 ± 3.4e-09
x1 = 0.228	-4.611e-07 ± 3.5e-09
x1 = 0.2317	-4.661e-07 ± 3.5e-09
x1 = 0.2533	-4.845e-07 ± 3.5e-09
x1 = 0.2599	-4.913e-07 ± 3.5e-09
x1 = 0.2804	-5.069e-07 ± 3.5e-09
x1 = 0.2837	-5.077e-07 ± 3.5e-09
x1 = 0.3079	-5.225e-07 ± 3.6e-09
x1 = 0.308	-5.222e-07 ± 3.6e-09
x1 = 0.3093	-5.264e-07 ± 3.6e-09
x1 = 0.3243	-5.305e-07 ± 3.5e-09
x1 = 0.3406	-5.399e-07 ± 3.5e-09
x1 = 0.3748	-5.488e-07 ± 3.5e-09
x1 = 0.4031	-5.518e-07 ± 3.6e-09
x1 = 0.4372	-5.508e-07 ± 3.6e-09
x1 = 0.4807	-5.416e-07 ± 3.5e-09
x1 = 0.5265	-5.238e-07 ± 3.5e-09
x1 = 0.5817	-4.921e-07 ± 3.5e-09
x1 = 0.5988	-4.766e-07 ± 3.5e-09
x1 = 0.6131	-4.66e-07 ± 3.5e-09
x1 = 0.6318	-4.516e-07 ± 3.5e-09
x1 = 0.6362	-4.516e-07 ± 3.5e-09
x1 = 0.6489	-4.37e-07 ± 3.4e-09
x1 = 0.6633	-4.244e-07 ± 3.4e-09
x1 = 0.6702	-4.188e-07 ± 3.4e-09
x1 = 0.6938	-3.98e-07 ± 3.4e-09
x1 = 0.6957	-3.938e-07 ± 3.4e-09
x1 = 0.6975	-3.923e-07 ± 3.4e-09
x1 = 0.7225	-3.669e-07 ± 3.4e-09
x1 = 0.7286	-3.606e-07 ± 3.4e-09
x1 = 0.7471	-3.413e-07 ± 3.3e-09
x1 = 0.752	-3.354e-07 ± 3.3e-09
x1 = 0.7584	-3.295e-07 ± 3.3e-09
x1 = 0.7813	-3.022e-07 ± 3.3e-09
x1 = 0.7951	-2.867e-07 ± 3.3e-09
x1 = 0.8055	-2.731e-07 ± 3.3e-09
x1 = 0.8278	-2.456e-07 ± 3.2e-09
x1 = 0.83	-2.444e-07 ± 3.2e-09
x1 = 0.8417	-2.295e-07 ± 3.2e-09
x1 = 0.8584	-2.065e-07 ± 3.2e-09
x1 = 0.8746	-1.858e-07 ± 3.2e-09
x1 = 0.8862	-1.705e-07 ± 3.2e-09
x1 = 0.9051	-1.481e-07 ± 3.2e-09
x1 = 0.9081	-1.406e-07 ± 3.2e-09
x1 = 0.9134	-1.337e-07 ± 3.1e-09
x1 = 0.9384	-9.87e-08 ± 3.1e-09
x1 = 0.943	-9.15e-08 ± 3.1e-09
x1 = 0.9698	-5.42e-08 ± 3.1e-09
x1 = 0.9711	-5.33e-08 ± 3.1e-09

CCO [ethanol]
Conditions	mass density [kg/m3]	refractive index
[1]	772.2 ± 3.4	–
[2]	–	1.3592 ± 0.0012

CO [methanol]
Conditions	mass density [kg/m3]	refractive index
[1]	772.2 ± 3.4	–
[2]	–	1.32645 ± 0.0012
